Data from patent US20140243411A1 (priority 2011, published 2014).

What was measured:
[1] = Equilibrium solubility of C2E5 in aqueous media of varying pH; assay type: physicochemical; details: aqueous buffer, thermodynamic from solid
[2] = log D by partitioning into octanol and water phases; assay type: physicochemical; details: pH 6.0, octanol and water
Method: More than a dozen esters and amide derivatives of DTPA were synthesized. […] C2E5 is an oil with a viscosity of 163 cps at 25° C. […] The density of C2E5 was determined to be 1.119 g/mL. […] The intrinsic partition coefficient (log P) of C2E5 is difficult to measure due to its instability at high pH. Thus, the log D6.0 was determined by measuring the partitioning of C2E5 into octanol and water phases.

[3] = pH 7.4; Sueda et al.; cited from earlier work
[4] = Pharmacokinetics of neat C2E5 and C2E5 non-aqueous gel, plasma LC/MS/MS (Example 9); assay type: in vivo, Sprague-Dawley (SD) rats; details: SD rat plasma; 200 mg/kg
Method: All animal studies were conducted according to a protocol approved by the University of North Carolina at Chapel Hill Institutional Animal Care and Use Committee (IACUC). Ten-week-old adult female Sprague-Dawley (SD) rats weighing from 200 to 300 g were used in these studies (Charles River Labs, Raleigh, N.C.). Food and water were given ad libitum. The animal room was kept at a controlled temperature (23° C.) and light cycle (light exposure from 8 AM to 8 PM). For the duration of the study, the rats were housed in metabolic cages individually with urine and feces collection until euthanasia at 24 h after neat C2E5 or C2E5 gel application.
Neat C2E5 (i.e., only C2E5) at a dose of 200 mg/kg was applied using a 1 mL syringe to the same size area as a positive control. […] The mass of neat C2E5 or C2E5 gel applied was recorded for each animal to permit actual dose determination. […] The animals were observed during the study period and the body weight of the animals was recorded at pre-dose and prior to necropsy.
Acidified plasma samples (100 μL) were first treated with 25 μL of ^13C—C2E5 stable-label internal standard (1000 ng/mL), followed by precipitation with MeCN (400 μL). […] After separation by liquid chromatography, the analytes and internal standard were detected on a triple quadrupole mass spectrometer using heated electrospray ionization (HESI-II) in the positive-ion mode. […]

CCOC(=O)CN(CCN(CC(=O)OCC)CC(=O)OCC)CCN(CC(=O)OCC)CC(=O)OCC [Formulation C2E5, penta-substituted ethyl ester of DTPA]
solubility thermodynamic ([1]; pH 5.7, room temperature): 20300 µg/mL
solubility thermodynamic ([1]; pH 7.1, room temperature): 3000 µg/mL
logD [2]: 2.2
solubility of C2E5 [3]: 2200 µg/mL
C2E1 in plasma samples [4]: not detected
